Data reported in patent US20090143279A1 (priority 2007, published 2009).
Read-outs that look alike come from different tables or passages of the source.

Experiments:
[1] = system: mitochondrial membrane potential; assay type: cell-based, mouse; conditions: for ΔΨm (composite Z-score): normalized score vs mock-treated (DMSO) wells
reactive oxygen species = assay type: cell-based, mouse; conditions: for ROS (composite Z-score): normalized score vs mock-treated (DMSO) wells
OXPHOS gene expression = assay type: cell-based, mouse; conditions: for GE-HTS (composite Z-score): normalized score vs mock-treated (DMSO) wells
nuOXPHOS transcripts = assay type: cell-based, mouse; conditions: for nucOX (composite Z-score): normalized score vs mock-treated (DMSO) wells
mtOXPHOS transcripts = assay type: cell-based, mouse; conditions: for mitoOX (composite Z-score): normalized score vs mock-treated (DMSO) wells
cytochrome c = assay type: cell-based, mouse; conditions: for cyt c (composite Z-score): normalized score vs mock-treated (DMSO) wells
C2C12 myotubes = conditions: for Viability (composite Z-score): normalized score vs mock-treated (DMSO) wells
[2] = system: cellular dehydrogenase activity; conditions: for MTT (composite Z-score): normalized score vs mock-treated (DMSO) wells
[3] = composite Z-score vs DMSO, Conc 20 μM
[4] = 20 μM, composite Z-score vs DMSO
[5] = composite Z-score vs DMSO wells, Conc 20 μM
[6] = composite Z-score vs mock-treated (DMSO) wells, Conc 20 μM
[7] = normalized composite Z-score vs mock-treated (DMSO) wells, Conc 20 μM

Work on `CC(C)[C@@H](C)/C=C/[C@@H](C)[C@H]1CC[C@H]2C3=CC=C4C[C@@H](O)CC[C@]4(C)[C@H]3CC[C@]12C` [ergosterol] yielded a ΔΨm [1, 3] of −0.489, an ROS (reactive oxygen species; [3]) of −0.198 and a GE-HTS (OXPHOS gene expression; [3]) of 0.231. For the same compound, the nucOX (nuOXPHOS transcripts; [3]) was 0.420, the mitoOX (mtOXPHOS transcripts; [3]) was −0.240 and the cyt c (cytochrome c; [3]) was 0.386. The Viability (C2C12 myotubes; [3]) was −0.792 and the MTT [2, 3] was −1.864.
With `CS(=O)(=O)CCCCN=C=S` [erysolin] the “ΔΨm (composite Z-score)” value ([1]; Conc 20 μM) was −0.785, the “ROS (composite Z-score)” value (reactive oxygen species; Conc 20 μM) was −2.871 and the “GE-HTS (composite Z-score)” value (OXPHOS gene expression; Conc 20 μM) was −0.913. For the same compound, the “nucOX (composite Z-score)” value (nuOXPHOS transcripts; Conc 20 μM) was −0.850, the “mitoOX (composite Z-score)” value (mtOXPHOS transcripts; Conc 20 μM) was −0.862 and the “cyt c (composite Z-score)” value (cytochrome c; Conc 20 μM) was −1.868. For the same compound, the “Viability (composite Z-score)” value (C2C12 myotubes; Conc 20 μM) was −4.103 and the “MTT (composite Z-score)” value ([2]; Conc 20 μM) was −3.551.
Work on `CCOC(=O)CCC(=O)O[C@H]1[C@H](O[C@@H]2[C@@H](C)[C@H](O[C@H]3C[C@@](C)(OC)[C@@H](O)[C@H](C)O3)[C@@H](C)C(=O)O[C@H](CC)[C@@](C)(O)[C@H](O)[C@@H](C)C(=O)[C@H](C)C[C@@]2(C)O)O[C@H](C)C[C@@H]1N(C)C` [erythromycin ethylsuccinate] yielded a ΔΨm [1, 4] of −0.488, an ROS (reactive oxygen species; [4]) of 0.555 and a GE-HTS (OXPHOS gene expression; [4]) of −0.390. For the same compound, the nucOX (nuOXPHOS transcripts; [4]) was −0.433, the mitoOX (mtOXPHOS transcripts; [4]) was −0.163 and the cyt c (cytochrome c; [4]) was 0.220. The Viability (C2C12 myotubes; [4]) was −0.945 and the MTT [2, 4] was −1.100.
In the case of `C[C@]12CC[C@@H]3c4ccc(O)cc4CC[C@H]3[C@@H]1CC[C@@H]2OC(=O)CCC1CCCC1` [estradiol cypionate], the ΔΨm [1, 5] is reported as −0.489, the ROS (reactive oxygen species; [5]) is reported as −0.010 and the GE-HTS (OXPHOS gene expression; [5]) is reported as −0.124. For the same compound, the nucOX (nuOXPHOS transcripts; [5]) was 0.072, the mitoOX (mtOXPHOS transcripts; [5]) was −0.418 and the cyt c (cytochrome c; [5]) was 0.408. For the same compound, the Viability (C2C12 myotubes; [5]) was 0.219 and the MTT [2, 5] was −2.428.
`COc1ccc2c(c1)CC[C@@H]1[C@@H]2CC[C@]2(C)[C@@H](O)CC[C@@H]12` [estradiol methyl ether] was tested, and the ΔΨm [1, 3] was −0.007, the ROS (reactive oxygen species; [3]) was 0.411 and the GE-HTS (OXPHOS gene expression; [3]) was 0.099. For the same compound, the nucOX (nuOXPHOS transcripts; [3]) was 0.214, the mitoOX (mtOXPHOS transcripts; [3]) was −0.209 and the cyt c (cytochrome c; [3]) was 1.670. It also gave a Viability (C2C12 myotubes; [3]) of 0.510 and an MTT [2, 3] of −0.685.
For `C[C@]12CC[C@@H]3c4ccc(O)cc4CC[C@H]3[C@@H]1CC[C@@H]2O` [estradiol], the ΔΨm [1, 3] was −0.085, the ROS (reactive oxygen species; [3]) was 0.310 and the GE-HTS (OXPHOS gene expression; [3]) was 0.290. For the same compound, the nucOX (nuOXPHOS transcripts; [3]) was 0.410, the mitoOX (mtOXPHOS transcripts; [3]) was −0.058 and the cyt c (cytochrome c; [3]) was 0.389. It also gave a Viability (C2C12 myotubes; [3]) of 0.400 and an MTT [2, 3] of −1.040.
`C[C@]12CCC3c4ccc(OC(=O)c5ccccc5)cc4CCC3C1CCC2=O` (some centres unmarked) [estrone benzoate] was tested, and the ΔΨm [1, 3] was −0.277, the ROS (reactive oxygen species; [3]) was 0.210 and the GE-HTS (OXPHOS gene expression; [3]) was 0.061. For the same compound, the nucOX (nuOXPHOS transcripts; [3]) was 0.190, the mitoOX (mtOXPHOS transcripts; [3]) was −0.179 and the cyt c (cytochrome c; [3]) was 0.406. The Viability (C2C12 myotubes; [3]) was 0.154 and the MTT [2, 3] was −0.807.
In the case of `CCC(N)C(O)c1ccc(O)c(O)c1` (centres unmarked) [ethylnorepinephrine], the “ΔΨm (composite Z-score)” value ([1]; Conc 20 μM) is reported as −2.053, the “ROS (composite Z-score)” value (reactive oxygen species; Conc 20 μM) is reported as −0.396 and the “GE-HTS (composite Z-score)” value (OXPHOS gene expression; Conc 20 μM) is reported as −0.475. For the same compound, the “nucOX (composite Z-score)” value (nuOXPHOS transcripts; Conc 20 μM) was −0.195, the “mitoOX (composite Z-score)” value (mtOXPHOS transcripts; Conc 20 μM) was −0.921 and the “cyt c (composite Z-score)” value (cytochrome c; Conc 20 μM) was −0.439. For the same compound, the “Viability (composite Z-score)” value (C2C12 myotubes; Conc 20 μM) was −0.508 and the “MTT (composite Z-score)” value ([2]; Conc 20 μM) was −1.017.
Work on `COc1cc([C@@H]2c3cc4c(cc3[C@@H](O[C@@H]3O[C@@H]5CO[C@@H](C)O[C@H]5[C@H](O)[C@H]3O)[C@H]3COC(=O)[C@H]23)OCO4)cc(OC)c1O` [etoposide] yielded a ΔΨm [1, 3] of 0.050, an ROS (reactive oxygen species; [3]) of −1.736 and a GE-HTS (OXPHOS gene expression; [3]) of 0.725. For the same compound, the nucOX (nuOXPHOS transcripts; [3]) was 0.355, the mitoOX (mtOXPHOS transcripts; [3]) was 1.373 and the cyt c (cytochrome c; [3]) was −0.491. For the same compound, the Viability (C2C12 myotubes; [3]) was −1.541 and the MTT [2, 3] was −2.352.
`Cc1cc(=O)c2c(O)c(C)c(O)cc2o1` [eugenitol] showed a ΔΨm [1, 6] of −0.541, an ROS (reactive oxygen species; [6]) of 1.256 and a GE-HTS (OXPHOS gene expression; [6]) of 0.471. The nucOX (nuOXPHOS transcripts; [6]) was 0.168, the mitoOX (mtOXPHOS transcripts; [6]) was 0.962 and the cyt c (cytochrome c; [6]) was −0.041. It also gave a Viability (C2C12 myotubes; [6]) of −0.575 and an MTT [2, 6] of −1.139.
For `C=CCc1ccc(O)c(OC)c1` [eugenol], the ΔΨm [1, 4] was −0.816, the ROS (reactive oxygen species; [4]) was 1.068 and the GE-HTS (OXPHOS gene expression; [4]) was −0.254. For the same compound, the nucOX (nuOXPHOS transcripts; [4]) was −0.166, the mitoOX (mtOXPHOS transcripts; [4]) was −0.320 and the cyt c (cytochrome c; [4]) was 0.307. It also gave a Viability (C2C12 myotubes; [4]) of −0.943 and an MTT [2, 4] of −0.243.
In the case of `C=C(C)c1cc2cc(C(C)=O)c(O)cc2o1` [euparin], the ΔΨm [1, 6] is reported as −0.010, the ROS (reactive oxygen species; [6]) is reported as 0.795 and the GE-HTS (OXPHOS gene expression; [6]) is reported as 1.120. The nucOX (nuOXPHOS transcripts; [6]) was 1.293, the mitoOX (mtOXPHOS transcripts; [6]) was 0.484 and the cyt c (cytochrome c; [6]) was 0.419. It also gave a Viability (C2C12 myotubes; [6]) of 0.021 and an MTT [2, 6] of −0.912.
With `COc1cc(C)c(C(=O)O)c(O)c1` [everninic acid] the ΔΨm [1, 7] was −0.942, the ROS (reactive oxygen species; [7]) was 0.423 and the GE-HTS (OXPHOS gene expression; [7]) was 1.491. The nucOX (nuOXPHOS transcripts; [7]) was 1.517, the mitoOX (mtOXPHOS transcripts; [7]) was 1.116 and the cyt c (cytochrome c; [7]) was 0.115. It also gave a Viability (C2C12 myotubes; [7]) of −0.592 and an MTT [2, 7] of −1.123.
